Conditions: Hot wire method

FC(F)(F)/C=C/Cl [(E)-1-chloro-3,3,3-trifluoroprop-1-ene]
Conditions	thermal conductivity [W/m/K]
283.61 K, 46184 kPa, Liquid	0.1051
283.62 K, 194 kPa, Liquid	0.08723
283.64 K, 39507 kPa, Liquid	0.1031
283.71 K, 33240 kPa, Liquid	0.1008
283.73 K, 64639 kPa, Liquid	0.1101
283.76 K, 27097 kPa, Liquid	0.09854
283.77 K, 55316 kPa, Liquid	0.1077
283.82 K, 46190 kPa, Liquid	0.1049
283.86 K, 39512 kPa, Liquid	0.1027
283.93 K, 33245 kPa, Liquid	0.1004
283.99 K, 27090 kPa, Liquid	0.0982
301.07 K, 36400 kPa, Liquid	0.09652
301.1 K, 25797 kPa, Liquid	0.09286
301.12 K, 8081 kPa, Liquid	0.08639
301.14 K, 16454 kPa, Liquid	0.08935
301.14 K, 36402 kPa, Liquid	0.09595
301.16 K, 25808 kPa, Liquid	0.09205
301.18 K, 7827 kPa, Liquid	0.08636
301.18 K, 8082 kPa, Liquid	0.08488
301.18 K, 25511 kPa, Liquid	0.09374
301.2 K, 16447 kPa, Liquid	0.08939
301.24 K, 25515 kPa, Liquid	0.09289
301.25 K, 302 kPa, Liquid	0.08142
301.25 K, 4078 kPa, Liquid	0.08444
301.25 K, 7830 kPa, Liquid	0.08532
301.27 K, 16013 kPa, Liquid	0.08986
301.31 K, 4086 kPa, Liquid	0.08339
301.33 K, 303 kPa, Liquid	0.08177
301.39 K, 62986 kPa, Liquid	0.1067
301.41 K, 56492 kPa, Liquid	0.1055
301.42 K, 48436 kPa, Liquid	0.1008
301.43 K, 65550 kPa, Liquid	0.1085
301.44 K, 36396 kPa, Liquid	0.09731
301.47 K, 62992 kPa, Liquid	0.1061
301.48 K, 42020 kPa, Liquid	0.09884
301.49 K, 25801 kPa, Liquid	0.09292
301.49 K, 56482 kPa, Liquid	0.1049
301.5 K, 36232 kPa, Liquid	0.09714
301.5 K, 48438 kPa, Liquid	0.1006
301.5 K, 65547 kPa, Liquid	0.1082
301.52 K, 47198 kPa, Liquid	0.101
301.53 K, 8090 kPa, Liquid	0.08523
301.53 K, 36388 kPa, Liquid	0.09726
301.54 K, 16449 kPa, Liquid	0.09014
301.54 K, 20530 kPa, Liquid	0.09027
301.55 K, 25503 kPa, Liquid	0.09319
301.55 K, 30551 kPa, Liquid	0.09454
301.56 K, 143 kPa, Gas	0.01127
301.56 K, 145 kPa, Gas	0.01102
301.56 K, 42014 kPa, Liquid	0.09907
301.57 K, 36234 kPa, Liquid	0.09632
301.58 K, 25794 kPa, Liquid	0.0925
301.59 K, 122 kPa, Gas	0.01123
301.59 K, 131 kPa, Gas	0.01121
301.6 K, 7831 kPa, Liquid	0.08616
301.6 K, 11892 kPa, Liquid	0.08784
301.6 K, 47198 kPa, Liquid	0.1006
301.61 K, 16007 kPa, Liquid	0.08871
301.62 K, 8093 kPa, Liquid	0.08518
301.63 K, 367 kPa, Liquid	0.08213
301.63 K, 7868 kPa, Liquid	0.08523
301.63 K, 16455 kPa, Liquid	0.08833
301.63 K, 20523 kPa, Liquid	0.09097
301.63 K, 30560 kPa, Liquid	0.09455
301.65 K, 25502 kPa, Liquid	0.09219
301.68 K, 4077 kPa, Liquid	0.08414
301.69 K, 311 kPa, Liquid	0.08156
301.69 K, 11881 kPa, Liquid	0.08767
301.69 K, 16012 kPa, Liquid	0.08885
301.7 K, 7834 kPa, Liquid	0.08567
301.72 K, 7864 kPa, Liquid	0.08629
301.73 K, 363 kPa, Liquid	0.08194
301.77 K, 4081 kPa, Liquid	0.08378
301.78 K, 307 kPa, Liquid	0.08197
301.79 K, 62991 kPa, Liquid	0.1059
301.81 K, 65522 kPa, Liquid	0.1076
301.83 K, 48074 kPa, Liquid	0.1002
301.88 K, 36387 kPa, Liquid	0.09695
301.89 K, 143 kPa, Gas	0.01116
301.89 K, 62976 kPa, Liquid	0.1058
301.9 K, 141 kPa, Gas	0.01138
301.9 K, 65529 kPa, Liquid	0.1065
301.91 K, 122 kPa, Gas	0.01121
301.91 K, 42002 kPa, Liquid	0.09897
301.92 K, 130 kPa, Gas	0.01129
301.92 K, 36223 kPa, Liquid	0.09724
301.92 K, 56462 kPa, Liquid	0.1042
301.93 K, 47191 kPa, Liquid	0.1005
301.94 K, 25799 kPa, Liquid	0.09347
301.94 K, 48073 kPa, Liquid	0.1008
301.94 K, 48421 kPa, Liquid	0.1013
301.98 K, 30546 kPa, Liquid	0.09459
301.99 K, 36387 kPa, Liquid	0.09693
302 K, 16444 kPa, Liquid	0.08896
302.01 K, 8085 kPa, Liquid	0.08503
302.01 K, 20519 kPa, Liquid	0.09088
302.01 K, 25500 kPa, Liquid	0.09318
302.02 K, 41998 kPa, Liquid	0.09906
302.03 K, 47196 kPa, Liquid	0.1005
302.04 K, 36232 kPa, Liquid	0.09691
302.05 K, 25799 kPa, Liquid	0.0933
302.07 K, 11891 kPa, Liquid	0.08755
302.07 K, 16014 kPa, Liquid	0.08895
302.08 K, 7823 kPa, Liquid	0.08555
302.09 K, 30563 kPa, Liquid	0.0947
302.12 K, 7862 kPa, Liquid	0.08568
302.12 K, 16448 kPa, Liquid	0.08904
302.12 K, 20518 kPa, Liquid	0.09092
302.12 K, 25501 kPa, Liquid	0.09247
302.13 K, 365 kPa, Liquid	0.08182
302.13 K, 8079 kPa, Liquid	0.08538
302.16 K, 4079 kPa, Liquid	0.0839
302.19 K, 312 kPa, Liquid	0.08161
302.19 K, 11879 kPa, Liquid	0.08708
302.19 K, 16009 kPa, Liquid	0.08853
302.2 K, 7820 kPa, Liquid	0.08528
302.24 K, 7854 kPa, Liquid	0.08541
302.25 K, 142 kPa, Gas	0.01122
302.25 K, 62977 kPa, Liquid	0.106
302.26 K, 139 kPa, Gas	0.01122
302.26 K, 383 kPa, Liquid	0.08132
302.27 K, 65494 kPa, Liquid	0.1068
302.28 K, 122 kPa, Gas	0.01119
302.28 K, 130 kPa, Gas	0.01138
302.28 K, 56452 kPa, Liquid	0.1046
302.29 K, 4074 kPa, Liquid	0.08366
302.3 K, 48061 kPa, Liquid	0.1009
302.31 K, 299 kPa, Liquid	0.08152
302.31 K, 48422 kPa, Liquid	0.1015
302.37 K, 62973 kPa, Liquid	0.1058
302.38 K, 36377 kPa, Liquid	0.09716
302.39 K, 42000 kPa, Liquid	0.09898
302.39 K, 65480 kPa, Liquid	0.1069
302.4 K, 56441 kPa, Liquid	0.104
302.41 K, 36234 kPa, Liquid	0.09718
302.41 K, 47190 kPa, Liquid	0.1008
302.42 K, 48052 kPa, Liquid	0.1012
302.44 K, 48420 kPa, Liquid	0.1011
302.45 K, 25800 kPa, Liquid	0.09349
302.47 K, 30544 kPa, Liquid	0.0948
302.51 K, 20515 kPa, Liquid	0.09108
302.51 K, 25497 kPa, Liquid	0.09286
302.51 K, 36380 kPa, Liquid	0.09677
302.52 K, 41997 kPa, Liquid	0.0988
302.53 K, 132 kPa, Gas	0.0109

Source: the NIST ThermoML archive (doi:10.1021/acs.jced.7b00106)
